# Values of other authors, collected in patent US20040142388A1, “Method for detecting chronic dementia diseases, and corresponding VGF peptides and detection reagents” (priority 2001, published 2004).
# Tested on: PC12 cell line
# Conditions: rat pheochomozytome cell line (PC12), stimulation with nerve growth factor
substance,measurement,value
NGF: important growth factor which regulates the differentiation of the peripheral and central nervous system,increase in the concentration of VGF,12- to 14 fold
